Measured values published in patent publication US20150259331A1, “PROTOZOAN PARASITE GROWTH INHIBITORS” (Northeastern University, priority 2014, published 2015).
Read-outs that look alike come from different tables or passages of the source.

What was measured:
[1] = tested on: endocytosis of transferrin; assay: Receptor-mediated endocytosis of transferrin in the trypanosome; format: cell-based, T. brucei
[2] = tested on: T. brucei brucei Lister 427; assay: Trypanosome replication assay; format: cell-based, Trypanosoma brucei brucei; conditions: concentration giving 50% inhibition of growth of T brucei brucei Lister 427 cells, 48 h, values ±7%, read-out: Tbb EC50
[3] = tested on: L. major amastigote; assay: L. major amastigote assay; format: cell-based
[4] = tested on: HepG2 cells; assay: HepG2 cell toxicity (MTT) assay; format: cell-based; conditions: Table 13; read-out: HepG2 TC50
[5] = tested on: P. fal; assay: P. fal assay of Table 13 (strain not given); format: cell-based, P. falciparum
[6] = not given; remark: listed apart in the source
[7] = tested on: T. cruzi; assay: T. cruzi growth inhibition; format: cell-based, Trypanosoma cruzi
[8] = tested on: L. major promastigote; assay: L. major promastigote assay; format: cell-based
[9] = Thermodynamic aqueous solubility; format: physicochemical
[10] = logD; format: physicochemical
[11] = Human liver microsomes CLint
[12] = Male rat hepatocytes CLint
[13] = Protein binding (Table 14); conditions: plasma

Row | effect on endocytosis of transferrin [1] | EC50 [2] [nM] | EC50 [3] [nM] | Male rat hepatocytes median CLint [μl/min/1E6 cells] | EC50 [5] [nM] | Human liver microsomes median CLint [6] [µL/min/mg] | EC50 [7] [nM] | EC50 [8] [nM] | EC50 ([2]; Trypanosoma brucei) [nM] | Solubility [9] [µM] | logD [10] | EC50 ([3]; Leishmania major) [nM] | EC50 ([5]; Plasmodium falciparum) [nM] | Human liver microsomes median CLint [11] [µL/min/mg] | Male rat hepatocytes median CLint [12] [μl/min/1E6 cells] | fraction unbound [13] | EC50 ([7]; Trypanosoma cruzi) [nM] | EC50 ([8]; Leishmania major) [nM] | Structure (SMILES) | CC50 [4] [nM]
1 | inhibited endocytosis of transferrin | – | – | – | – | – | – | – | – | – | – | – | – | – | – | – | – | – | CS(=O)(=O)CCNCc1ccc(-c2ccc3ncnc(Nc4ccc(OCc5cccc(F)c5)c(Cl)c4)c3c2)o1 [Compound 1, lapatinib, reference compound] | –
2 | – | 350 | 1600 | 37.95 | 47 | 151.8 | 90 | 920 | – | – | – | – | – | – | – | – | – | – | CN1CCCN(S(=O)(=O)c2ccc(-c3ccc4ncc(C#N)c(Nc5ccc(OCc6cccc(F)c6)c(Cl)c5)c4c3)cc2)CC1 [NEU-924] | > 15000
3 | – | – | – | – | – | – | – | – | 2100 | <1 | 3.5 | > 3000 | 32 | 78.87 | 13.93 | < 0.01 | 49000 | 200 | O=S(=O)(c1ccc(-c2ccc3nccc(Nc4ccc(OCc5ccccc5)c(Cl)c4)c3c2)cc1)N1CCOCC1 [NEU-945, N-(4-(Benzyloxy)-3-chlorophenyl)-6-(4-(morpholinosulfonyl)phenyl)quinolin-4-amine] | > 5000
4 | – | – | – | – | – | – | – | – | 79 | – | – | 1600 | 19 | 142.7 | 20.24 | < 0.01 | 730 | 1000 | CN1CCN(S(=O)(=O)c2ccc(-c3ccc4c(Nc5ccc(OCc6cccc(F)c6)c(Cl)c5)ccnc4c3)cc2)CC1 [NEU-961, N-(3-Chloro-4-((3-fluorobenzyl)oxy)phenyl)-7-(4-((4-methylpiperazin-1-yl)sulfonyl)phenyl)quinolin-4-amine] | > 4000
5 | – | – | – | – | – | – | – | – | 210 | <1 | – | 240 | 3 | 99.32 | 36.72 | < 0.01 | 49000 | 6400 | CN1CCCN(S(=O)(=O)c2ccc(-c3ccc4c(Nc5ccc(OCc6cccc(F)c6)c(Cl)c5)cnnc4c3)cc2)CC1 [NEU-1017, N-(3-Chloro-4-((3-fluorobenzyl)oxy)phenyl)-7-(4-((4-methyl-1,4-diazepan-1-yl)sulfonyl)phenyl)cinnolin-4-amine] | 15000
